Results taken from patent publication US6384051B1, “Method of treating or inhibiting colonic polyps” (American Cyanamid Company, priority 2000, dated 2002).

Question: Which melting point does the source give for COc1cc2ncc(C#N)c(Nc3cccc(O)c3C)c2cc1OC [Example 245, 4-(3-Hydroxy-2-methyl-phenylamino)-6,7-dimethoxy-quinoline-3-carbonitrile] here?
Answer: The melting point was 255 to 257 °C.

Question: With COc1cc2ncc(C#N)c(Nc3c(C)cccc3O)c2cc1OC [Example 246, 4-(2-Hydroxy-6-methyl-phenylamino)-6,7-dimethoxy-quinoline-3-carbonitrile] as the compound, how does the melting point read?
Answer: The melting point was 245 to 247 °C.

Question: Which melting point does the source give for COc1cc2ncc(C#N)c(Nc3cccc(C(N)=O)c3)c2cc1OC [Example 247, 3-(3-Cyano-6,7-dimethoxy-quinolin-4-ylamino)-benzamide] here?
Answer: The melting point was 253 to 255 °C.

Question: With COc1cc2ncc(C#N)c(Nc3ccc(C)c(Br)c3)c2cc1OC [Example 248, 4-(3-Bromo-4-methyl-phenylamino)-6,7-dimethoxy-quinoline-3-carbonitrile] as the compound, how does the melting point read?
Answer: Its melting point is 292 to 294 °C.

Question: For COc1cc2ncc(C#N)c(Nc3ccc(O)c(Cl)c3)c2cc1OC [Example 249, 4-(3-Chloro-4-hydroxy-phenylamino)-6,7-dimethoxy-quinoline-3-carbonitrile], which melting point is on record?
Answer: The melting point was 230 to 232 °C.

Question: With COc1cccc2c(Nc3cccc(Br)c3)c(C#N)cnc12 [Example 274, 4-[(3-Bromophenyl)amino]-8-methoxy-3-quinolinecarbonitrile] as the compound, how does the melting point read?
Answer: The melting point was 210 to 212 °C.

Question: Which melting point does the source give for COc1cccc2c(Nc3ccc(Cl)cc3F)c(C#N)cnc12 [Example 275, 4-(4-Chloro-2-fluoro-phenylamino)-8-methoxy-quinoline-3-carbonitrile] here?
Answer: The melting point was 127 °C (dec.).

Question: For COc1cccc2c(Nc3cccc(N(C)C)c3)c(C#N)cnc12 [Example 277, 4-(3-Dimethylamino-phenylamino)-8-methoxy-quinoline-3-carbonitrile], which melting point is on record?
Answer: Its melting point is 222 to 225 °C.

Question: For COc1cccc2c(Nc3ccc(Br)c(O)c3)c(C#N)cnc12 [Example 278, 4-(4-Bromo-3-hydroxy-phenylamino)-8-methoxy-quinoline-3-carbonitrile], which melting point is on record?
Answer: Its melting point is 146 °C (dec.).

Question: Which melting point does the source give for COc1ccc(Nc2c(C#N)cnc3c(OC)cccc23)cc1O [Example 279, 4-(3-Hydroxy-4-methoxy-phenylamino)-8-methoxy-quinoline-3-carbonitrile] here?
Answer: The melting point was 138 to 140 °C (dec.).

Question: With COc1cccc2c(Nc3c(F)cc(F)cc3F)c(C#N)cnc12 [Example 280, 8-Methoxy-4-(2,4,6-trifluoro-phenylamino)-quinoline-3-carbonitrile] as the compound, how does the melting point read?
Answer: Its melting point is 297 °C (dec.).

Question: Which melting point does the source give for COc1ccc2c(Nc3ccc(C)c(O)c3)c(C#N)cnc2c1 [Example 281, 4-(3-Hydroxy-4-methyl-phenylamino)-7-methoxy-quinoline-3-carbonitrile] here?
Answer: The melting point was over 250 °C.

Question: With COc1ccc2c(Nc3cc(O)c(Cl)cc3F)c(C#N)cnc2c1 [Example 282, 4-(4-Chloro-2-fluoro-5-hydroxy-phenylamino)-7-methoxy-quinoline-3-carbonitrile] as the compound, how does the melting point read?
Answer: The melting point was 240 °C (dec.).

Question: For COc1ccc2ncc(C#N)c(Nc3ccc(Cl)cc3F)c2c1 [Example 283, 4-(4-Chloro-2-fluoro-phenylamino)-6-methoxy-quinoline-3-carbonitrile], which melting point is on record?
Answer: Its melting point is over 250 °C.

Question: For COc1ccc2ncc(C#N)c(Nc3ccc(C)c(O)c3)c2c1 [Example 284, 4-(3-Hydroxy-4-methyl-phenylamino)-6-methoxy-quinoline-3-carbonitrile], which melting point is on record?
Answer: The melting point was > 250 °C (dec.).

Question: For COc1ccc2ncc(C#N)c(Nc3cc(O)c(Cl)cc3F)c2c1 [Example 285, 4-(4-Chloro-2-fluoro-5-hydroxy-phenylamino)-6-methoxy-quinoline3-carbonitrile], which melting point is on record?
Answer: Its melting point is 228 to 230 °C.

Question: Which melting point does the source give for COc1cc2ncc(C#N)c(Nc3cc(Cl)c(O)c(Cl)c3)c2cc1OC [Example 286, 4-(3,5-Dichloro-4-hydroxy-phenylamino)-6,7-dimethoxy-quinoline-3-carbonitrile] here?
Answer: The melting point was over 250 °C.

Question: For COc1cc2ncc(C#N)c(Nc3ccc(C)cc3O)c2cc1OC [Example 287, 4-(2-Hydroxy-4-methyl-phenylamino)-6,7-dimethoxy-quinoline-3-carbonitrile], which melting point is on record?
Answer: Its melting point is over 250 °C.

Question: Which melting point does the source give for COc1cc2ncc(C#N)c(Nc3ccc(C(N)=O)cc3)c2cc1OC [Example 289, 4-(3-Cyano-6,7-dimethoxy-quinolin-4-ylamino)-benzamide] here?
Answer: The melting point was over 250 °C.

Question: Which melting point does the source give for COc1cc2ncc(C#N)c(Nc3cc(Cl)ccc3O)c2cc1OC [Example 290, 4-(5-Chloro-2-hydroxy-phenylamino)-6,7-dimethoxy-quinoline-3-carbonitrile] here?
Answer: Its melting point is over 250 °C.

Question: For COc1cc2ncc(C#N)c(Nc3cc(Br)c(O)c(Br)c3)c2cc1OC [Example 291, 4-(3,5-Dibromo-4-hydroxy-phenylamino)-6,7-dimethoxy-quinoline-3-carbonitrile], which melting point is on record?
Answer: The melting point was over 250 °C.

Question: With COc1cc2ncc(C#N)c(Nc3ccc(O)cc3C)c2cc1OC [Example 292, 4-(4-Hydroxy-2-methyl-phenylamino)-6,7-dimethoxy-quinoline-3-carbonitrile] as the compound, how does the melting point read?
Answer: The melting point was over 250 °C.

Question: With COc1cc2ncc(C#N)c(Nc3cc(C)ccc3O)c2cc1OC [Example 295, 4-(2-Hydroxy-5-methyl-phenylamino)-6,7-dimethoxy-quinoline-3-carbonitrile] as the compound, how does the melting point read?
Answer: Its melting point is 198 to 200 °C.

Question: With COc1cc2ncc(C#N)c(Nc3ccc(O)cc3Cl)c2cc1OC [Example 296, 4-(2-Chloro-4-hydroxy-phenylamino)-6,7-dimethoxy-quinoline-3-carbonitrile] as the compound, how does the melting point read?
Answer: Its melting point is over 250 °C.

Question: For COc1cc2ncc(C#N)c(Nc3ccccc3C(N)=O)c2cc1OC [Example 297, 2-(3-Cyano-6,7-dimethoxy-quinolin-4-ylamino)-benzamide], which melting point is on record?
Answer: The melting point was 238 to 240.5 °C.

Question: With COc1cc2ncc(C#N)c(Nc3ccc(CCO)cc3)c2cc1OC [Example 299, 4-[4-(2-Hydroxy-ethyl)-phenylamino]-6,7-dimethoxy-quinoline-3-carbonitrile] as the compound, how does the melting point read?
Answer: The melting point was 208 to 210 °C.

Question: Which melting point does the source give for COc1cc2ncc(C#N)c(Nc3ccc(O)cc3O)c2cc1OC [Example 300, 4-(2,4-Dihydroxy-phenylamino)-6,7-dimethoxy-quinoline-3-carbonitrile] here?
Answer: Its melting point is over 250 °C.

Question: For COc1cc2ncc(C#N)c(Nc3ccccc3CCO)c2cc1OC [Example 301, 4-[2-(2-Hydroxy-ethyl)-phenylamino]-6,7-dimethoxy-quinoline-3-carbonitrile], which melting point is on record?
Answer: The melting point was 159 to 162 °C.

Question: Which melting point does the source give for COc1cc2c(Nc3ccc(O)cc3C)c(C#N)cnc2cc1OCCCN1CCOCC1 [Example 312, 4-(4-Hydroxy-2-methyl-phenylamino)-6-methoxy-7-(3-morpholin-4yl-propoxy)-quinoline-3-carbonitrile] here?
Answer: The melting point was 120 to 126 °C.

Question: Which melting point does the source give for COc1cc2c(Nc3cccc(Br)c3)c(C#N)cnc2cc1OCCCN1CCOCC1 [Example 313, 4-(3-Bromo-phenylamino)-6-methoxy-7-(3-morpholin-4-yl-propoxy)-quinoline-3-carbonitrile] here?
Answer: The melting point was 115 to 118 °C.

Question: With COc1cc2c(Nc3ccccc3SC)c(C#N)cnc2cc1OCCCN1CCOCC1 [Example 314, 6-Methoxy-4-(2-methylsulfanyl-phenylamino)-7-(3-morpholin-4-yl-propoxy)-quinoline-3-carbonitrile] as the compound, how does the melting point read?
Answer: Its melting point is 179 to 180 °C.

Question: With CN(C)CC#CC(=O)Nc1ccc2ncc(C#N)c(Nc3cccc(Br)c3)c2c1 [Example 329, N-[4-[(3-Bromophenyl)amino]-3-cyano-6-quinolinyl]-4-dimethylamino-2-butynamide] as the compound, how does the melting point read?
Answer: The melting point was 180 °C (dec.).

Question: Which melting point does the source give for COCC#CC(=O)Nc1ccc2ncc(C#N)c(Nc3cccc(Br)c3)c2c1 [Example 330, N-[4-[(3-Bromophenyl)amino]-3-cyano-6-quinolinyl]-4-methoxy-2-butynamide] here?
Answer: Its melting point is 197 °C (dec.).

Question: Which melting point does the source give for COc1cc2ncc(C#N)c(Nc3cccc(CO)c3C)c2cc1OC [Example 333, 4-(3-Hydroxymethyl-2-methylphenylamino)-6,7-dimethoxyquinoline-3-carbonitrile] here?
Answer: The melting point was 123 to 125 °C.

Question: Which melting point does the source give for CCc1ccc(Nc2c(C#N)cnc3cc(OC)c(OC)cc23)cc1 [Example 335, 4-(4-Ethylphenylamino)-6,7-dimethoxyquinoline-3-carbonitrile] here?
Answer: Its melting point is 248 to 250 °C.

Question: With COc1cc2ncc(C#N)c(Nc3ccc(Cl)cc3C)c2cc1OC [Example 336, 4-(4-Chloro-2-methylphenylamino)-6,7-dimethoxyquinoline-3-carbonitrile] as the compound, how does the melting point read?
Answer: The melting point was 227 to 229 °C.

Question: For COc1cc2ncc(C#N)c(Nc3ccc(Cl)c(C(F)(F)F)c3)c2cc1OC [Example 338, 4-(4-Chloro-3-trifluoromethylphenylamino)-6,7-dimethoxyquinoline-3-carbonitrile], which melting point is on record?
Answer: Its melting point is 265 to 267 °C.

Question: Which melting point does the source give for COc1cc2ncc(C#N)c(Nc3cccc(N(C)C)c3)c2cc1OC [Example 366, 4-(3-Dimethylamino-phenylamino)-6,7-dimethoxy-quinoline-3-carbonitrile] here?
Answer: The melting point was 246 to 249 °C.

Question: For COc1ccc(Nc2c(C#N)cnc3cc(OC)c(OC)cc23)c(C)c1 [Example 367, 6,7-Dimethoxy-4-(4-methoxy-2-methyl-phenylamino)-quinoline-3-carbonitrile], which melting point is on record?
Answer: The melting point was > 131 °C (dec.).

Question: With COc1cc2ncc(C#N)c(Nc3cccc(C(=O)O)c3C)c2cc1OC [Example 368, 3-(3-Cyano-6,7-dimethoxy-quinolin-4-ylamino) -2-methyl-benzoic acid] as the compound, how does the melting point read?
Answer: The melting point was 242 to 245 °C.

Question: For COc1cc2ncc(C#N)c(Nc3ccc(C)c(Cl)c3)c2cc1OC [Example 370, 4-(3-Chloro-4-methyl-phenylamino)-6,7-dimethoxy-quinoline-3-carbonitrile], which melting point is on record?
Answer: Its melting point is over 250 °C.

Question: With COc1ccc(Cl)cc1Nc1c(C#N)cnc2cc(OC)c(OC)cc12 [Example 372, 4-(5-Chloro-2-methoxyphenylamino)-6,7-dimethoxy-quinoline-3-carbonitrile] as the compound, how does the melting point read?
Answer: Its melting point is 200 to 202 °C.

Question: Which melting point does the source give for N#Cc1cnc2cc(O)c(O)cc2c1Nc1ccc(Cl)cc1F [Example 373, 4-(4-Chloro-2-fluoro-phenylamino)-6,7-dihydroxy-quinoline-3-carbonitrile] here?
Answer: The melting point was 270 to 272 °C.

Question: Which melting point does the source give for COc1cc2ncc(C#N)c(Nc3ccc(C(F)(F)F)cc3)c2cc1OC [Example 376, 6,7-Dimethoxy-4-(4-trifluoromethyl-phenylamino)-quinoline-3-carbonitrile] here?
Answer: Its melting point is 116 to 118 °C.
